Results from ChEMBL document CHEMBL1201862, “PubChem BioAssay data set” (2004).
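Growth conditions: 96-well plates. Treatment: test compound, 48 hours, 5 concentrations. Analysis: linear interpolation between bracketing concentrations; unreached endpoints set to highest concentration. Abbreviation: GI50, concentration required for 50% inhibition of growth.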 The source made the active and inactive calls. No stated cut-off is given here; in the data, active = GI50 up to about 1.1 µM and inactive = higher.

Key:
Test in all cases: growth of human tumour cells (NCI), 48 h
SK-OV-3 = test system: SK-OV-3
M19-MEL = test system: M19-MEL
HL-60 = test system: HL-60
SK-MEL-2 = test system: SK-MEL-2
DMS-114 = test system: DMS-114
LXFL 529 = test system: LXFL 529
NCI-H226 = test system: NCI-H226
HOP-18 = test system: HOP-18
SNB-19 = test system: SNB-19
OVCAR-3 = test system: OVCAR-3
SN12C = test system: SN12C
HCT-15 = test system: HCT-15
SK-MEL-28 = test system: SK-MEL-28
MDA-N = test system: MDA-N
T47D = test system: T47D
PC-3 = test system: PC-3
DU-145 = test system: DU-145
SNB-75 = test system: SNB-75
MCF7 = test system: MCF7
SNB-78 = test system: SNB-78

| SMILES | GI50 (SK-OV-3) | GI50 (M19-MEL) | GI50 (HL-60) | GI50 (SK-MEL-2) | GI50 (DMS-114) | GI50 (LXFL 529) | GI50 (NCI-H226) | GI50 (HOP-18) | GI50 (SNB-19) | GI50 (OVCAR-3) | GI50 (SN12C) | GI50 (HCT-15) [µM] | GI50 (SK-MEL-28) | GI50 (MDA-N) | GI50 (T47D) | GI50 (PC-3) | GI50 (DU-145) | GI50 (SNB-75) | GI50 (MCF7) | GI50 (SNB-78) |
| --- | --- | --- | --- | --- | --- | --- | --- | --- | --- | --- | --- | --- | --- | --- | --- | --- | --- | --- | --- | --- |
| NNc1nnc(-c2ccccc2)nc1Cc1ccccc1 | 14.3 µM (inactive) | 7.41 µM (inactive) | 4.32 µM (inactive) | 6.35 µM (inactive) | 3.17 µM (inactive) | 3.85 µM (inactive) | 2.37 µM (inactive) | 2.03 µM (inactive) | 6.62 µM (inactive) | 3.61 µM (inactive) | 5.79 µM (inactive) | 4.13 | 7.71 µM (inactive) |  |  |  |  |  |  |  |
| COC(=O)C1C(C(=O)OC)N(Cc2ccccc2)C(=O)N1Cc1ccccc1 (configuration not stated) | 53.8 µM (inactive) |  | 13.3 µM (inactive) | > 100 µM (inactive) |  |  | > 100 µM (inactive) |  | > 100 µM (inactive) | 61.8 µM (inactive) | > 100 µM (inactive) |  | > 100 µM (inactive) | > 100 µM (inactive) | 68.9 µM (inactive) | > 100 µM (inactive) | > 100 µM (inactive) | > 100 µM (inactive) | 7.5 µM (inactive) |  |
| COc1ccc(/C(Cl)=C(\C=O)c2ccccc2)cc1OC | 70.3 µM (inactive) | 13.6 µM (inactive) | 6.78 µM (inactive) | 19.4 µM (inactive) | 13.1 µM (inactive) | 12.4 µM (inactive) | 21 µM (inactive) | 30.1 µM (inactive) | 27.9 µM (inactive) | 10.3 µM (inactive) | 11 µM (inactive) | 12.7 |  |  |  |  |  | 11.6 µM (inactive) |  | 16.7 µM (inactive) |
| Cc1nc2[nH]ncn2c(=O)c1CCCl | > 10 µM (inactive) |  | > 10 µM (inactive) | > 10 µM (inactive) |  |  | > 10 µM (inactive) |  | > 10 µM (inactive) |  | > 10 µM (inactive) | > 10 | > 10 µM (inactive) | > 10 µM (inactive) | > 10 µM (inactive) | > 10 µM (inactive) | > 10 µM (inactive) | > 10 µM (inactive) | > 10 µM (inactive) |  |
| CCC(C(=O)c1ccc(OC)c(OC)c1)N(C(=O)C(F)(F)F)C(C)c1ccccc1 (configuration not stated) | > 100 µM (inactive) |  | > 100 µM (inactive) |  |  |  |  |  | > 100 µM (inactive) | > 100 µM (inactive) |  | > 100 | > 100 µM (inactive) | > 100 µM (inactive) | 91 µM (inactive) | > 100 µM (inactive) | > 100 µM (inactive) |  | > 100 µM (inactive) |  |
| CC(=O)OC1(C#N)CC2OC1C1C2N=NN1C(=O)OC(C)(C)C (configuration not stated) |  | 16.5 µM (inactive) |  | 23.4 µM (inactive) | 23.2 µM (inactive) | 33 µM (inactive) |  | > 100 µM (inactive) |  | 47.6 µM (inactive) | 35.6 µM (inactive) | 21.4 | 28.8 µM (inactive) |  |  |  |  | 31.8 µM (inactive) |  | 26.9 µM (inactive) |
